Reference: PMC2532997, “Methoxylation enhances stilbene bioactivity in Caenorhabditis elegans” (BMC Pharmacology, 2008)

Test: Determination of stilbene uptake (steady-state levels by GC-MS)
Type: in vivo, Caenorhabditis elegans
Conditions: animals treated for 2 days with 100 μM in the culture medium
Excerpt: The differential bioactivities of methoxylated and hydroxylated stilbenes in C. elegans adults might reflect differences in uptake or bioavailability. In general, intact C. elegans adults take up compounds relatively poorly due to their thick, impermeable cuticle. This impermeability has impeded pharmacodynamic analysis in this organism. However, steady-state levels of compounds can be measured in treated animals to provide one measure of pharmacodynamics. To assess whether differential uptake correlated with bioactivity in C. elegans, steady-state levels for pterostilbene, resveratrol-trimethylether and desoxyrhapontigenin were determined in animals treated for 2 days with 100 μM of each compound in the culture medium. […] These concentrations were within the range of serum stilbene levels detected after dietary stilbene supplementation with human volunteers (approx. 2 μM) and rabbits (42.8 μM). […]
Uptake was determined for three stilbenes (desoxyrhapontigenin, pterostilbene and resveratrol-trimethylether) by measuring the steady-state levels of each stilbene in adult fem-1(hc17) hermaphrodites treated under the same conditions as those used for survival assays. […] Derivatized sample was analyzed for stilbenes by gas chromatography-mass spectrometry (GC-MS). […] Quantitation was performed from calibration curve of authentic stilbene samples. […]

SMILES: COc1ccc(/C=C/c2cc(OC)cc(OC)c2)cc1 [Resveratrol-trimethylether, resveratrol-trimethylether]
- steady-state level relative to pterostilbene: less than one-third the level of pterostilbene
